# Experimental data as given in ChEMBL document CHEMBL1144896 (2003).
# Assays:
# [1] = system: NCI-H1299; assay: (§1) hTERT-SEAP (Human telomerase reverse transcriptase-SEAP) activity in non-small cell lung cancer H1299 cell at 2.3 uM concentration and level of cell viability determined in MTT assay; format: functional
# [2] = system: NCI-H1299; assay: as §1; format: functional; remark: listed apart in the source
# [3] = system: NCI-H1299; assay: hTERT-SEAP (Human telomerase reverse transcriptase-SEAP) activity in non-small cell lung cancer H1299 cell at 23 uM concentration and level of cell viability determined in MTT assay; format: functional
# [4] = system: NCI-H1299; assay: (§2) Compound was tested for human telomerase reverse transcriptase-SEAP (hTERT-SEAP) activity in non-small cell lung cancer H1299 cell at 2.3 uM concentration; format: functional
# [5] = system: BJ; assay: hTERT-SEAP (Human telomerase reverse transcriptase-SEAP) activity in immortalized hTERT-BJI at 23 uM concentration and level of cell viability determined in MTT assay; format: functional
# [6] = system: NCI-H1299; assay: hTERT-SEAP (Human telomerase reverse transcriptase-SEAP) activity in non-small cell lung cancer H1299 cell at 230.0 uM concentration and level of cell viability determined in MTT assay; format: functional
# [7] = system: NCI-H1299; assay: Compound was tested for human telomerase reverse transcriptase-SEAP (hTERT-SEAP) activity in non-small cell lung cancer H1299 cell at 23 uM concentration; format: functional
# [8] = system: BJ; assay: Compound was tested for human telomerase reverse transcriptase-SEAP (hTERT-SEAP) activity in immortalized hTERT-BJI at 23 uM concentration; format: functional
# [9] = system: BJ; assay: hTERT-SEAP (Human telomerase reverse transcriptase-SEAP) activity in immortalized hTERT-BJI at 230.0 uM concentration and level of cell viability determined in MTT assay; format: functional
# [10] = system: NCI-H1299; assay: Compound was tested for human telomerase reverse transcriptase-SEAP (hTERT-SEAP) activity in non-small cell lung cancer H1299 cell at 230.0 uM concentration; format: functional
# [11] = system: BJ; assay: Compound was tested for human telomerase reverse transcriptase-SEAP (hTERT-SEAP) activity in immortalized hTERT-BJI at 230.0 uM concentration; format: functional
# [12] = system: NCI-H1299; assay: as §2; format: functional; remark: listed apart in the source
# [13] = system: BJ; assay: Compound was tested for human telomerase reverse transcriptase-SEAP (hTERT-SEAP) activity in immortalized hTERT-BJI at 220.0 uM concentration; format: functional
# [14] = system: BJ; assay: Compound was tested for human telomerase reverse transcriptase-SEAP (hTERT-SEAP) activity in immortalized hTERT-BJI at 2.2 uM concentration; format: functional
# [15] = system: BJ; assay: Compound was tested for human telomerase reverse transcriptase-SEAP (hTERT-SEAP) activity in immortalized hTERT-BJI at 22 uM concentration; format: functional
# [16] = system: BJ; assay: Compound was tested for cytomegalovirus or (pPCMV-SEAP) activity in immortalized hTERT-BJ1 at 22 uM concentration; format: functional, Homo sapiens
# [17] = system: NCI-H1299; assay: hTERT-SEAP (Human telomerase reverse transcriptase-SEAP) activity in non-small cell lung cancer H1299 cell at 220.0 uM concentration and level of cell viability determined in MTT assay; format: functional
# [18] = system: BJ; assay: Compound was tested for cytomegalovirus or (pPCMV-SEAP) activity in immortalized hTERT-BJ1 at 220 uM concentration; format: functional, Homo sapiens
# [19] = system: BJ; assay: hTERT-SEAP (Human telomerase reverse transcriptase-SEAP) activity in immortalized hTERT-BJI at 220.0 uM concentration and level of cell viability determined in MTT assay; format: functional
# [20] = system: NCI-H1299; assay: Compound was tested for human telomerase reverse transcriptase-SEAP (hTERT-SEAP) activity in non-small cell lung cancer H1299 cell at 220.0 uM concentration; format: functional
# [21] = system: BJ; assay: hTERT-SEAP (Human telomerase reverse transcriptase-SEAP) activity in immortalized hTERT-BJI at 2.2 uM concentration and level of cell viability determined in MTT assay; format: functional
# [22] = system: BJ; assay: pPCMV-SEAP (cytomegalovirus-SEAP) activity in immortalized hTERT-BJ1 at 22 uM concentration and level of cell viability determined in MTT assay; format: functional, Homo sapiens
# [23] = system: BJ; assay: pPCMV-SEAP (cytomegalovirus-SEAP) activity in immortalized hTERT-BJ1 at 220 uM concentration and level of cell viability determined in MTT assay; format: functional, Homo sapiens
# [24] = system: NCI-H1299; assay: Compound was tested for human telomerase reverse transcriptase-SEAP (hTERT-SEAP) activity in non-small cell lung cancer H1299 cell at 22 uM concentration; format: functional
# [25] = system: NCI-H1299; assay: Compound was tested for human telomerase reverse transcriptase-SEAP (hTERT-SEAP) activity in non-small cell lung cancer H1299 cell at 2.2 uM concentration; format: functional
# [26] = system: BJ; assay: pPCMV-SEAP (cytomegalovirus-SEAP) activity in immortalized hTERT-BJ1 at 2.2 uM concentration and level of cell viability determined in MTT assay; format: functional, Homo sapiens
# [27] = system: BJ; assay: Compound was tested for cytomegalovirus or (pPCMV-SEAP) activity in immortalized hTERT-BJ1 at 2.2 uM concentration; format: functional, Homo sapiens
# [28] = system: BJ; assay: hTERT-SEAP (Human telomerase reverse transcriptase-SEAP) activity in immortalized hTERT-BJI at 22 uM concentration and level of cell viability determined in MTT assay; format: functional
# [29] = system: NCI-H1299; assay: hTERT-SEAP (Human telomerase reverse transcriptase-SEAP) activity in non-small cell lung cancer H1299 cell at 22 uM concentration and level of cell viability determined in MTT assay; format: functional
# [30] = system: NCI-H1299; assay: hTERT-SEAP (Human telomerase reverse transcriptase-SEAP) activity in non-small cell lung cancer H1299 cell at 2.2 uM concentration and level of cell viability determined in MTT assay; format: functional
# [31] = system: NCI-H1299; assay: Compound was tested for human telomerase reverse transcriptase-SEAP (hTERT-SEAP) activity in non-small cell lung cancer H1299 cell at 28.0 uM concentration; format: functional
# [32] = system: NCI-H1299; assay: hTERT-SEAP (Human telomerase reverse transcriptase-SEAP) activity in non-small cell lung cancer H1299 cell at 2.8 uM concentration and level of cell viability determined in MTT assay; format: functional
# [33] = system: NCI-H1299; assay: hTERT-SEAP (Human telomerase reverse transcriptase-SEAP) activity in non-small cell lung cancer H1299 cell at 280.0 uM concentration and level of cell viability determined in MTT assay; format: functional
# [34] = system: NCI-H1299; assay: Compound was tested for human telomerase reverse transcriptase-SEAP (hTERT-SEAP) activity in non-small cell lung cancer H1299 cell at 2.8 uM concentration; format: functional
# [35] = system: BJ; assay: hTERT-SEAP (Human telomerase reverse transcriptase-SEAP) activity in immortalized hTERT-BJI at 28.0 uM concentration and level of cell viability determined in MTT assay; format: functional
# [36] = system: NCI-H1299; assay: Compound was tested for human telomerase reverse transcriptase-SEAP (hTERT-SEAP) activity in non-small cell lung cancer H1299 cell at 280.0 uM concentration; format: functional
# [37] = system: BJ; assay: Compound was tested for human telomerase reverse transcriptase-SEAP (hTERT-SEAP) activity in immortalized hTERT-BJI at 28.0 uM concentration; format: functional
# [38] = system: NCI-H1299; assay: hTERT-SEAP (Human telomerase reverse transcriptase-SEAP) activity in non-small cell lung cancer H1299 cell at 28 uM concentration and level of cell viability determined in MTT assay; format: functional
# [39] = system: BJ; assay: hTERT-SEAP (Human telomerase reverse transcriptase-SEAP) activity in immortalized hTERT-BJI at 2.8 uM concentration and level of cell viability determined in MTT assay; format: functional
# [40] = system: BJ; assay: Compound was tested for human telomerase reverse transcriptase-SEAP (hTERT-SEAP) activity in immortalized hTERT-BJI at 280.0 uM concentration; format: functional
# [41] = system: BJ; assay: hTERT-SEAP (Human telomerase reverse transcriptase-SEAP) activity in immortalized hTERT-BJI at 280.0 uM concentration and level of cell viability determined in MTT assay; format: functional
# [42] = system: BJ; assay: Compound was tested for human telomerase reverse transcriptase-SEAP (hTERT-SEAP) activity in immortalized hTERT-BJI at 2.8 uM concentration; format: functional
# [43] = system: BJ; assay: Compound was tested for human telomerase reverse transcriptase-SEAP (hTERT-SEAP) activity in immortalized hTERT-BJI at 190.0 uM concentration; format: functional
# [44] = system: NCI-H1299; assay: hTERT-SEAP (Human telomerase reverse transcriptase-SEAP) activity in non-small cell lung cancer H1299 cell at 1.9 uM concentration and level of cell viability determined in MTT assay; format: functional
# [45] = system: NCI-H1299; assay: Compound was tested for human telomerase reverse transcriptase-SEAP (hTERT-SEAP) activity in non-small cell lung cancer H1299 cell at 1.9 uM concentration; format: functional
# [46] = system: NCI-H1299; assay: Compound was tested for human telomerase reverse transcriptase-SEAP (hTERT-SEAP) activity in non-small cell lung cancer H1299 cell at 19 uM concentration; format: functional
# [47] = system: NCI-H1299; assay: hTERT-SEAP (Human telomerase reverse transcriptase-SEAP) activity in non-small cell lung cancer H1299 cell at 190.0 uM concentration and level of cell viability determined in MTT assay; format: functional
# [48] = system: BJ; assay: Compound was tested for human telomerase reverse transcriptase-SEAP (hTERT-SEAP) activity in immortalized hTERT-BJI at 19 uM concentration; format: functional
# [49] = system: BJ; assay: hTERT-SEAP (Human telomerase reverse transcriptase-SEAP) activity in immortalized hTERT-BJI at 19 uM concentration and level of cell viability determined in MTT assay; format: functional
# [50] = system: NCI-H1299; assay: hTERT-SEAP (Human telomerase reverse transcriptase-SEAP) activity in non-small cell lung cancer H1299 cell at 19 uM concentration and level of cell viability determined in MTT assay; format: functional
# [51] = system: NCI-H1299; assay: Compound was tested for human telomerase reverse transcriptase-SEAP (hTERT-SEAP) activity in non-small cell lung cancer H1299 cell at 190.0 uM concentration; format: functional
# [52] = system: BJ; assay: hTERT-SEAP (Human telomerase reverse transcriptase-SEAP) activity in immortalized hTERT-BJI at 190.0 uM concentration and level of cell viability determined in MTT assay; format: functional
smiles,measurement,setting,value
O=C1c2cccc(Sc3ccncc3)c2C(=O)c2cccc(Sc3ccncc3)c21,Relative viability,[1],79%
same,Relative viability,[2],112%
same,Relative viability,[3],45%
same,Relative SEAP activity,[4],104%
same,Relative viability,[5],91%
same,Relative viability,[6],29%
same,Relative SEAP activity,[7],103%
same,Relative SEAP activity,[8],133%
same,Relative viability,[9],55%
same,Relative SEAP activity,[10],89%
same,Relative SEAP activity,[11],121%
same,Relative SEAP activity,[12],98%
O=C1c2cccc(Sc3nccc(O)n3)c2C(=O)c2cccc(Sc3nccc(O)n3)c21,Relative SEAP activity,[13],145%
same,Relative SEAP activity,[14],93%
same,Relative SEAP activity,[15],116%
same,Relative SEAP activity,[16],105%
same,Relative viability,[17],51%
same,Relative SEAP activity,[18],120%
same,Relative viability,[19],89%
same,Relative SEAP activity,[20],93%
same,Relative viability,[21],104%
same,Relative viability,[22],118%
same,Relative viability,[23],78%
same,Relative SEAP activity,[24],97%
same,Relative SEAP activity,[25],92%
same,Relative viability,[26],107%
same,Relative SEAP activity,[27],112%
same,Relative viability,[28],106%
same,Relative viability,[29],95%
same,Relative viability,[30],99%
CCCSc1cccc2c1C(=O)c1cccc(SCCC)c1C2=O,Relative SEAP activity,[31],29%
same,Relative viability,[32],96%
same,Relative viability,[33],25%
same,Relative SEAP activity,[34],73%
same,Relative viability,[35],97%
same,Relative SEAP activity,[36],17%
same,Relative SEAP activity,[37],110%
same,Relative viability,[38],44%
same,Relative viability,[39],103%
same,Relative SEAP activity,[40],122%
same,Relative viability,[41],39%
same,Relative SEAP activity,[42],132%
O=C(Oc1cccc2c1C(=O)c1cccc(OC(=O)c3cccc(Cl)c3)c1C2=O)c1cccc(Cl)c1,Relative SEAP activity,[43],91%
same,Relative viability,[44],98%
same,Relative SEAP activity,[45],83%
same,Relative SEAP activity,[46],92%
same,Relative viability,[47],46%
same,Relative SEAP activity,[48],152%
same,Relative viability,[49],80%
same,Relative viability,[50],88%
same,Relative SEAP activity,[51],81%
same,Relative viability,[52],44%
